Data: patent publication US20230143932A1, “PIN6 PROTEINS FOR THE FORMATION OF NODULE-LIKE STRUCTURES” (University of Freiburg, priority 2021, published 2023)

What was measured:
Experiment in all cases: Root organogenesis response to transient auxin treatment (pseudonodule count)
Assay type in all cases: in vivo
[1] = tested on: Hordeum vulgare cultivar Golden Promise; conditions: Hordeum vulgare (barley) roots, 50 μM for 1 hour, counted 7 days after treatment
Experimental: (§1) In order to investigate the potential impact of auxin and cytokinin treatment on root organogenesis, seeds of the Medicago truncatula cultivar Jester, the Lotus japonicus ecotype Gifu, and the Hordeum vulgare cultivar Golden Promise were sterilized, and then seedlings were grown on FP media (without Nitrogen and Phosphorus) for 3, 7, and 2 days, respectively. Grown plants were transformed to FP media with either control treatment, 50 μM of 2,4-Dichlorophenoxyacetic acid (synthetic auxin), 100 nM of 6-Benzylaminopurine (synthetic cytokinin) or both of the hormones for 1 hour before moving to FP media. FIG. 1A-1C show the number of pseudonodules/Arrested Lateral roots (ALR) counted 7 days after control treatment, treatment with 2,4-Dichlorophenoxyacetic acid (2,4-D), 6-Benzylaminopurine (BAP), or both.

[2] = tested on: Lotus japonicus ecotype Gifu; conditions: 50 μM for 1 hour, counted 7 days after treatment
Experimental: as §1

[3] = tested on: Medicago truncatula cultivar Jester; conditions: 50 μM for 1 hour, counted 7 days after treatment
Experimental: as §1

With O=C(O)COc1ccc(Cl)cc1Cl [2,4-Dichlorophenoxyacetic acid] the “pseudonodule formation compared with control plants” value [1] was “increased pseudonodule formation”, the “pseudonodule formation compared with control plants” value ([1]; listed as auxin) was “formation of pseudonodules” and the “pseudonodule formation compared with control plants” value [2] was “increased pseudonodule formation”. For the same compound, the “pseudonodule formation compared with control plants” value [3] was “increased pseudonodule formation”.
